# Laboratory results published in patent US11793782B2, “Therapeutic agents for neurodegenerative diseases” (priority 2017, dated 2023).
# Columns and labels:
# Npc1−/− mouse = experiment: Lifespan and symptom onset of Npc1−/− mouse; format: in vivo
# Source text: Separate groups of Npc1^−/− and Npc1^+/+ mice were left untreated, as controls.
# [1] = tested on: Hexb−/− mouse (Sandhoff disease model); experiment: Step cycle, Sandhoff mouse; format: in vivo; conditions: Sandhoff mice, 0.1 g/kg from 3 weeks of age, 12 weeks of age
# Protocol: Step cycle is the length of time taken during locomotion by a limb from the time it leaves the ground until it leaves the ground on the next occasion. Step cycle time was assessed at 12 weeks of age in untreated and acetyl-leucine treated Sandhoff model mice. Acetyl-leucine treatment constituted 0.1 g/kg body weight acetyl-leucine from 3 weeks of age.
# [2] = tested on: Niemann-Pick A (NPA) patient fibroblasts; experiment: Lysosomal volume via LysoTracker, NPA fibroblasts; format: cell-based, human; conditions: 1 mM, 6 days
# [3] = tested on: patients with Niemann-Pick Type C (NPC); conditions: Bremova et al. (2015); cited from earlier work
# Npc1−/− mice = experiment: Coat condition of Npc1−/− mice; format: in vivo, mouse; conditions: 0.1 g/kg in chow from weaning, nine weeks of age
# Source text: Separate groups of Npc1^-/- and Npc1^+/+ mice were left untreated, as controls.
# [4] = tested on: fibroblast cell line from an NPC patient; experiment: Relative lysosomal volume via LysoTracker, NPC fibroblasts; format: cell-based, human; conditions: 1 mM
# Protocol: A fibroblast cell line from an NPC patient was treated for 3 days with N-acetyl-DL-leucine (1 mM) and relative lysosomal volume was quantified via LysoTracker, a fluorescent dye that accumulates in acidic organelles. Increased LysoTracker fluorescence is indicative of an increase in lysosomal size and/or number, and is a hallmark of NPC cells.
# vertigo patients = conditions: used in France to treat acute vertigo since 1957; cited from earlier work
# [5] = tested on: Mucopolysaccharidosis Type VII (MPS VII) patient fibroblasts; experiment: Lysosomal volume via LysoTracker, MPS VII fibroblasts; format: cell-based, human; conditions: 1 mM, 6 days
# [6] = tested on: corticobasal syndrome patient; experiment: Case study, corticobasal syndrome; format: in vivo, human
# Protocol: Gait analysis was performed before treatment commenced.
# [7] = tested on: Lewy Body dementia patient; experiment: Case study, Lewy Body dementia; format: in vivo, human
# Protocol: The patient started taking acetyl-leucine (3 g/day for one week; 5 g/day thereafter) and was evaluated after four weeks. […] Medication was reduced to 3 g/day, and the patient was instructed to stop medication about two weeks later.
# [8] = tested on: GM1 Gangliosidosis patient; experiment: Case study, GM1 Gangliosidosis patient; format: in vivo, human; conditions: after one month
# Source text: The patient in this case study was a person who was genetically diagnosed with GM1 Gangliosidosis and who was not able to stand or walk by themself, was very limited in daily activities (eating, washing, dressing themself was not possible), and had ocular movement disorder, anarthria, and distinct problems in cognitive function and concentration (neurological examination was not possible).
# The patient was started on therapy with acetyl-leucine at a dose of 1.5 g per day for the first week, followed by a dose of 3 g per day for the second week onwards.
# Npc1−/− and Npc1+/+ mice [9] = experiment: Gait analysis (CatWalk), NPC mouse study; format: in vivo; conditions: 0.1 g/kg from weaning, eight weeks of age
# Protocol: Separate groups of Npc1^−/− and Npc1^+/+ mice were left untreated, as controls. Gait analysis was performed on mice at eight weeks of age using a CatWalk®15.0 system according to manufacturer's instructions (Noldus, Nottingham, UK). Five runs were recorded per animal. CatWalk® parameters measured were: • 1. Stand Mean: average duration (s) of paws in contact with glass plate; • 2. Step Cycle: duration (s) between two consecutive contacts of the same paw; • 3. Duty Cycle: percentage of time paws in contact with plate compared with time to complete a step cycle; • 4. Step Sequence (AB): percentage of time spent walking in LF-RH-RF-LH alternating pattern (LF: left front; RH: right hind; RF: right front; LH left hind); • 5. Cadence: step per seconds in a trial; • 6. Diagonal Support: percentage of time with simultaneous contact of diagonal paws with the glass plate (RF&LH or RH&LF). Motor Function Analysis
# Npc1−/− and Npc1+/+ mice [10] = experiment: Motor function analysis (Open Field Activity Monitor), NPC mouse study; format: in vivo; conditions: 0.1 g/kg from weaning, nine weeks of age
# Protocol: Separate groups of Npc1^−/− and Npc1^+/+ mice were left untreated, as controls. Motor function analysis was performed on mice at eight and nine weeks of age using an Open Field Activity Monitor according to manufacturer's instructions (Linton Instruments, Amlogger Software). Each mouse was placed in a plastic cage with bedding and analysed for five minutes. Rears were counted manually. Motor function parameters measured were: • 1. Centre Rearing: mice rearing on hind legs unsupported; • 2. Rearing: mice rearing on hind legs with and without the support of cage walls; • 3. Activity: regular movement of the animal including walks; • 4. Front to Back (FR) count: movement of the animal from front to back of the cage; • 5. Active Time: duration (s/min) of activeness regardless of movement; • 6. Mobile Time: duration (s/min) of mobility; • 7. Rearing Time: duration of any rearing. Results Coat Condition
# [11] = tested on: AB variant of Tay-Sachs disease patient fibroblasts; experiment: Glycosphingolipid (GSL) levels by HPLC, AB variant fibroblasts; format: cell-based, human; conditions: 1 mM for 6 days
# [12] = after 1 week on acetyl-DL-leucine
# [13] = after 4 weeks on acetyl-DL-leucine
structure (smiles),measurement,setting,value
CC(=O)NC(CC(C)C)C(=O)O (racemic) [acetyl-DL-leucine],Delay of discernible indication of disease vs untreated Npc1−/− mice,Npc1−/− mouse; Npc1−/− mice treated from weaning,two
same,Lifespan,"Npc1−/− mouse; Npc1−/− mouse, 0.1 g/kg from 3 weeks of age",statistically significant increase in lifespan
same,Average step cycle time,[1]; p<0.001 vs untreated,significantly faster average step cycle times
same,Hind step cycle time,[1]; p<0.01 vs untreated,significantly faster hind step cycle times
same,Front step cycle time,[1]; p<0.05 vs untreated,significantly faster front step cycle times
same,LysoTracker fluorescence relative to untreated disease fibroblasts,[2],statistically significant reduction in LysoTracker fluorescence
same,Ataxia in one-month study involving 12 patients,[3],symptomatic improvement of ataxia
same,Coat condition,Npc1−/− mice,smooth and glossy coat
same,LysoTracker fluorescence (lysosomal volume),[4]; fibroblasts from NPC patient of mild clinical severity,significant decrease in LysoTracker fluorescence
same,LysoTracker fluorescence (lysosomal volume),"[4]; fibroblasts from additional NPC patients of variable clinical severity, 72 hours",replicated
same,Safety profile,vertigo patients,excellent safety profile
same,LysoTracker fluorescence relative to untreated disease fibroblasts,[5],trend in reducing LysoTracker fluorescence
same,Clinical observation,"[6]; 5 g per day, after 20 days",improvement of dizziness symptoms and significant reduction in the frequency of falls
same,Coefficient of variation (temporal),"[6]; after 20 days of treatment, before 3.9",3.4
same,Track width,"[6]; after 20 days of treatment, before 12.1",12.3 cm
same,Functional Gait Assessment,"[6]; after 20 days of treatment, before 13/30",18/30
same,Double stance,"[6]; after 20 days of treatment, before 29.8",26.6%
same,speed,"[6]; after 20 days of treatment, before 63",92 cm/s
same,Step cycle length,"[6]; after 20 days of treatment, before 84",104 cm
same,cadence,"[6]; after 20 days of treatment, before 90",106 steps/minute
same,Max. speed,"[6]; after 20 days of treatment, before 131",152 cm/s
same,Symptoms after suspension of treatment,"[6]; two days after suspension, after 8 weeks of treatment",increase of dizziness symptoms
same,Patient report,"[7]; 5 g/day, after four weeks",increased fatigue and a deterioration of balance and speech
same,Coefficient of variation (temporal),[7]; [12],9.1
same,Double stance,[7]; [12],36.1%
same,Max. speed,[7]; [12],92 cm/s
same,Step cycle length,[7]; [12],81 cm
same,Track width,[7]; [12],4.6 cm
same,cadence,[7]; [12],81 steps/minute
same,speed,[7]; [12],55 cm/s
same,Coefficient of variation (temporal),[7]; [13],8.8
same,Double stance,[7]; [13],38.7%
same,Functional Gait Assessment,[7]; [13],11/30
same,Max. speed,[7]; [13],74 cm/s
same,Step cycle length,[7]; [13],79 cm
same,Track width,[7]; [13],6.7 cm
same,cadence,[7]; [13],85 steps/minute
same,speed,[7]; [13],56 cm/s
same,Patient report,"[7]; decreased dose 3 g/day, re-evaluated about one month after ceasing",did not report improvement of symptomatology
same,SARA,"[8]; 3 g per day, baseline 35/40",35/40
same,Clinical observation,[8],"stable general condition, increased gait (more fluent), and stable stance in natural position"
same,mRDS,[8]; baseline 15,16
same,EQ-5D-5L visual scale,[8]; baseline 50,60
same,Gait vs untreated littermates,Npc1−/− and Npc1+/+ mice [9],significantly improved gait
same,Motor function vs untreated littermates,Npc1−/− and Npc1+/+ mice [10],significantly improved motor function
same,GSL levels,[11],trend towards decreased GSL levels
